According to patent US20240059691A1 (KALVISTA PHARMACEUTICALS LIMITED, priority 2020, published 2024):

The compounds below were run against Human Factor XIIa (Homo sapiens (Human), UniProt P00748) (assay: Determination of FXIIa inhibition (fluorogenic substrate H-DPro-Phe-Arg-AFC, IC50 assay)). Settings: substrate H-DPro-Phe-Arg-AFC at Km, 25° C.; class scale A-G.
Format: biochemical
Description: Determination of FXIIa Inhibition
In vitro inhibition of Factor XIIa was determined using an IC50 assay based on standard literature methods (see e.g Baeriswyl et al., ACS Chem. Biol., 2015, 10 (8) 1861; Bouckaert et al., European Journal of Medicinal Chemistry 110 (2016) 181). Human Factor XIIa (Enzyme Research Laboratories) was incubated at 25° C. with the fluorogenic substrate H-DPro-Phe-Arg-AFC (Peptide Protein Science) and various concentrations of the test compound. Protease activity was measured by monitoring the accumulation of liberated fluorescence from the substrate over 5 min at 25° C. The linear rate of fluorescence increase per minute was expressed as percentage (%) activity. The Km for the cleavage of the substrate by FXIIa was determined by standard transformation of the Michaelis-Menten equation. The compound inhibitor assays were performed at substrate Km concentration. IC50 values were calculated as the concentration of inhibitor giving 50% inhibition (IC50) of the uninhibited enzyme activity (100%).

Sequence of Human Factor XIIa (P00748 373-615): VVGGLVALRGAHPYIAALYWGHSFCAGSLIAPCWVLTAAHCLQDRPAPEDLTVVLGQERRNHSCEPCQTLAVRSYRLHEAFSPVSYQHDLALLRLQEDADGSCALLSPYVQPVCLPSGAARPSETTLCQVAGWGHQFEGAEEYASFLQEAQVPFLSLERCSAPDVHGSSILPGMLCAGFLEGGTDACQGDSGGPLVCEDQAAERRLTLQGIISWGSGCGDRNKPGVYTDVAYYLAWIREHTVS

`CN1CCC(COc2cc(CNc3cnc4[nH]cc(Cl)c4c3)ccn2)CC1` [Example 4264, 3-chloro-N-((2-((1-methylpiperidin-4-yl)methoxy)pyridin-4-yl)methyl)-1H-pyrrolo[2,3-b]pyridin-5-amine] and `CN1CCC(CNc2ccc(CNc3cc(C(F)(F)F)cc4[nH]ccc34)cn2)CC1` [Example 1237, N-((6-(((1-methylpiperidin-4-yl)methyl)amino)pyridin-3-yl)methyl)-6-(trifluoromethyl)-1H-indol-4-amine] fall in the same range of IC50: 10 to 40 µM for the first, 10 to 40 µM for the second.

`Cc1cc(N2CCn3c(nnc3C(F)(F)F)C2)ncc1CNc1ccnc2c1CCN2` [Example 1339, N-((4-methyl-6-(3-(trifluoromethyl)-5,6-dihydro-[1,2,4]triazolo[4,3-a]pyrazin-7(8H)-yl)pyridin-3-yl)methyl)-2,3-dihydro-1H-pyrrolo[2,3-b]pyridin-4-amine] and `Cc1cc(N2CCn3c(nnc3C(F)(F)F)C2)ncc1CNc1ccnc(N)c1` [Example 1323, N4-((4-methyl-6-(3-(trifluoromethyl)-5,6-dihydro-[1,2,4]triazolo[4,3-a]pyrazin-7(8H)-yl)pyridin-3-yl)methyl)pyridine-2,4-diamine] fall in the same range of IC50: 10 to 40 µM for the first, 10 to 40 µM for the second.

First: CC1c2nnc(C(F)(F)F)n2CCN1c1cnc(CNc2cccc3c(N)nccc23)c(F)c1 (stereo not shown) [Example 9008, N5-((3-fluoro-5-(8-methyl-3-(trifluoromethyl)-5,6-dihydro-[1,2,4]triazolo[4,3-a]pyrazin-7(8H)-yl)pyridin-2-yl)methyl)isoquinoline-1,5-diamine]
Second: Cc1cc(N2CCn3c(nnc3C(F)(F)F)C2)ccc1CNc1cccc2c(N)nccc12 [Example 2257, N5-(2-methyl-4-(3-(trifluoromethyl)-5,6-dihydro-[1,2,4]triazolo[4,3-a]pyrazin-7(8H)-yl)benzyl)isoquinoline-1,5-diamine]
The IC50 of the first is lower: 0.01 to 0.1 µM for the first, 0.1 to 0.3 µM for the second. The first is the more potent here.

Compared with `Nc1nccc2cc(NCc3cccc(CN4CCCC4)c3)ccc12` [Example 4287, 6-N-{[3-(pyrrolidin-1-ylmethyl)phenyl]methyl}isoquinoline-1,6-diamine], `CN1CCN(C(=O)Cc2ccc(CNc3ccc4c(N)nccc4c3)cc2)CC1` [Example 2179, 2-(4-{[(1-aminoisoquinolin-6-yl)amino]methyl}phenyl)-1-(4-methylpiperazin-1-yl)ethanone] is lower in IC50: 10 to 40 µM for the first, 1 to 3 µM for the second. The second is the more potent here.

First: CN1C[C@@H]2C(COc3ccc(CNc4ccc5c(N)nccc5c4)cn3)[C@@H]2C1 (stereo partly drawn) [Example 1175, 6-N-[(6-{[(1R,5S,6S)-3-methyl-3-azabicyclo[3.1.0]hexan-6-yl]methoxy}pyridin-3-yl)methyl]isoquinoline-1,6-diamine]
Second: Cn1ccnc1COc1cc(CNc2ccc3c(N)nccc3c2)ccn1 [Example 4422, 6-N-({2-[(1-methylimidazol-2-yl)methoxy]pyridin-4-yl}methyl)isoquinoline-1,6-diamine]
The IC50 of the first is lower: 0.3 to 1 µM for the first, 3 to 10 µM for the second. The first is the more potent here.

Compared with `Nc1nccc2c(NCc3cc(N4CCn5c(nnc5C(F)(F)F)C4)cs3)cccc12` [Example 8459, N5-((4-(3-(Trifluoromethyl)-5,6-dihydro-[1,2,4]triazolo[4,3-a]pyrazin-7(8H)-yl)thiophen-2-yl)methyl)isoquinoline-1,5-diamine], `Nc1nccc2c(NCc3ccc(N4CCn5c(nnc5C(F)(F)F)C4)nc3)nccc12` [Example 1318, N1-((6-(3-(trifluoromethyl)-5,6-dihydro-[1,2,4]triazolo[4,3-a]pyrazin-7(8H)-yl)pyridin-3-yl)methyl)-2,6-naphthyridine-1,5-diamine] is higher in IC50: 0.1 to 0.3 µM for the first, 10 to 40 µM for the second. The first is the more potent here.

`Cc1cc(N2CCn3c(nnc3C(F)(F)F)C2C)ncc1CNc1ccnc2[nH]c(Cl)cc12` (single isomer, unassigned) [Example 1316, (S*)-2-Chloro-N-((4-methyl-6-(8-methyl-3-(trifluoromethyl)-5,6-dihydro-[1,2,4]triazolo[4,3-a]pyrazin-7(8H)-yl)pyridin-3-yl)methyl)-1H-pyrrolo[2,3-b]pyridin-4-amine] was tested, and the IC50 was 0.01 to 0.1 µM.
